The values below come from patent US7067517B2 (priority 2001, dated 2006).

Where two headings read alike, the source gives them in different places.

Usually melting point stands for the temperature of the solid-liquid transition.

The target in data set [1] is T1, Hormone-sensitive lipase (HSL) (Homo sapiens, UniProt Q05469).
T1 sequence (Q05469 1-1076): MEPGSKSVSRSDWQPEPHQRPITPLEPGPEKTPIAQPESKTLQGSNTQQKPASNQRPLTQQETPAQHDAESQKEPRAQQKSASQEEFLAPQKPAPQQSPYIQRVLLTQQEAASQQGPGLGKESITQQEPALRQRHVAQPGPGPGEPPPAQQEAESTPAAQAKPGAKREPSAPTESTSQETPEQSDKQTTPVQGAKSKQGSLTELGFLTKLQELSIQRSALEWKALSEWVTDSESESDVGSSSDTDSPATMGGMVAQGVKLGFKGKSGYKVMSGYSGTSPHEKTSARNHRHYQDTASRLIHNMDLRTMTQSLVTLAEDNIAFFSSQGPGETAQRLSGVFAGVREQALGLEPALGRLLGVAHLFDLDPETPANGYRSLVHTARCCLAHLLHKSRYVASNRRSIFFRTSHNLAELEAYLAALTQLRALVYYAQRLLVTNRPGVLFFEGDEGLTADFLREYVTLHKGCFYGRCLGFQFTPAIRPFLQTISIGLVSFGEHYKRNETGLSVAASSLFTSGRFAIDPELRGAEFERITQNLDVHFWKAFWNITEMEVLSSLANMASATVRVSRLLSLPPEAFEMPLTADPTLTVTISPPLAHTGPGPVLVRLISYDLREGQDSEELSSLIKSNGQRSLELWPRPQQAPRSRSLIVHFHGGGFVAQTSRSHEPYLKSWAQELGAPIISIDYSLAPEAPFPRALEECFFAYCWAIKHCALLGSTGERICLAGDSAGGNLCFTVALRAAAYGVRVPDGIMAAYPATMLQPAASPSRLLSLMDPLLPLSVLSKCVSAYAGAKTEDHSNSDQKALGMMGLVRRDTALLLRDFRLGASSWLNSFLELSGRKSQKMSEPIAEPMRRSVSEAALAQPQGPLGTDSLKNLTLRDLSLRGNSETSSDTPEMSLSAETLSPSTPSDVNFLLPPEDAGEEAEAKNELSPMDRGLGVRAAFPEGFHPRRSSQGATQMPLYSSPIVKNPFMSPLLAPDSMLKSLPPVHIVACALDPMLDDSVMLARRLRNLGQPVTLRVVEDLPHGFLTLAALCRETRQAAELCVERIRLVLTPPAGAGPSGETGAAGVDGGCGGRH
The data set is classed as biochemical. To be noted: SPA on-bead assay; % Eff (% Inhibition). From the text: (§1) Materials. The Hormone-sensitive lipase was provided by Dr. Cecilia Holm, from Lund University Sweden or produced and purified by Novo Nordisk (NN) using the reagents and protocols used by Dr. Holm. The substrates used are: ^3H-labeled triolein (TO) from Amersham, Buckinghamshire, U.K. cat No. TRA191; 5–20 Ci/mmol dissolved in toluene, triolein (Sigma, Cat. No. T-1740), fluorochrome-labeled triacylglyceride (cis-octadec-9-enoic acid 2-[12-(7-nitrobenzo[1,2,5]oxadiazol-4-ylamino)dodecanoyloxy]-1-cis-octadec-9-enoyloxymethyl-ethyl ester) prepared by Novo Nordisk (NN) by conventional methods, and 1,3-(di[^3H]-stearin), 2-(PEG-Boitin)glycerol prepared in collaboration with Amersham Pharmacia Biotech, UK and described in WO 01/073442. Phosphatidyl choline (PC) and phosphatidyl inositol (PI) are from Sigma (St Luis Mo. cat. Nos. P-3556 and P-5954 respectively). All other reagents are of commercial grade and obtained from various commercial sources.
2898.2: This method is an enzyme assay based upon SPA (scintillation proximity assay) particles. The substrate, 1,3-(di-[^3H]-stearin), 2-(PEG-Biotin)-glycerol, is marked with ^3H in both fatty acid moieties in the tri-glyceride. The third moiety of the tri-glyceride is a PEG linked Biotin. The substrate binds through Biotin to streptavidin in the SPA particles and the proximity between the radioactive tritium in the stearic acid moiety and the SPA particle results in emission of light from the SPA particles. The assay is an on-bead assay where HSL degrades the substrate, where after ^3H-stearin acid is released from the bead. The amount of light emitted is proportional to the amount of substrate bound to the receptor. When a compound that inhibits the activity of HSL is present it results in a decrease in degradation of the substrate and thus an increase in the amount of light emitted and a concomitant increase in % Eff. % Eff(% Inhibition)=(S−S0Eff)/(SmaxEff−S0Eff)×100 Where S=signal in dpm., SOEff=no inhibitor added, SmaxEff=with maximum concentration of inhibitor. Results

Data set [2] has as its target T1, Hormone-sensitive lipase (HSL). Put plainly: biochemical. To be noted: 10 μM concentration, percent activity relative to an un-inhibited sample (no compound); for activity at 10 µM: read-out: Test 3180.2 HSL % ACTIVITY All. In kind it is biochemical.
Excerpt: as §1
3180.2: Assay for determination of percent inhibition by compound at 10 μM concentration.
A lipid emulsion with ^3H-Triolein and phospholipid is used as substrate with a standard cencentration of highly purified HSL. BSA is added as product receptor. The substrate is prepared as follows:
30 μl PC:PI (20 mg/ml solution of PC:PI 3:1 prepared in chloroform)+128 μl cold TO+15 μl ^3H-TO are mixed and then evaporated under a gentle stream of N2 followed by 20–30 minutes in a Speedvac to ensure the absence of residual solvent.
Compound and HSL are incubated for 30 min at 25° C. before addition of substrate. Reaction is stopped after 30 min at 25° C. by adding a mixture of methanol, chloroform and heptane at high pH. Formed product is separated from substrate by phase separation.
Results are given as percent activity relative to an un-inhibited sample (no compound).

For data set [3] the target is unchanged. Put plainly: biochemical. To be noted: for activity at 10 µM: read-out: Test 3190.1 HSL_FL % ACTIVITY All. On the procedure:
Materials. The Hormone-sensitive lipase was provided by Dr. Cecilia Holm, from Lund University Sweden or produced and purified by Novo Nordisk (NN) using the reagents and protocols used by Dr. Holm. […] All other reagents are of commercial grade and obtained from various commercial sources.
BSA is added as product receptor. The transfer of the fluorochrome from the lipid phase to the water (BSA) phase changes the fluorescent properties of the fluorochrome. The changes can be monitored on a fluorimeter with an excitation wavelength of 450 nm and an emission wavelength of 545 nm.
Compound and HSL (20 μL compound, 10 μL enzyme and 70 μL PED-BSA buffer) is pre-incubated for 30 min at 25° C. before addition of substrate (100 μL). Amount of formed product is measured after 120 min incubation at 37° C.

Setting [4] is: 10 μM sample concentration, percent activity relative to a non-inhibited sample (no compound).

With `CC(C)C(Cl)=NOC(=O)NCC(O)c1ccccc1` (stereo not drawn) [Example 113, N-(2-Hydroxy-2-phenylethylcarbamoyloxy)-isobutyrimidoyl chloride], the “Test 2898.2 HSL2 % Inhibition All” value in data set [1] turned out to be 18.3%.
For the compound `Cc1c(Cc2ccccc2)c(=O)oc2cc(OC(=O)N3CCOCC3)ccc12` [Example 92], in data set [2], the “Test 3180.2 HSL % ACTIVITY All” value is 62%.
Consider `COc1ccc(OC)c(-c2c(C)c3ccc(OC(=O)N(C)c4ccccc4)cc3oc2=O)c1` [Example 48, Methyl-phenyl-carbamic acid 3-(2,5-dimethoxy-phenyl)-4-methyl-2-oxo-2H-chromen-7-yl ester], for which the activity at 10 µM in data set [3] is 15%.
On to `CSc1nc(-c2ccc(Cl)cc2)nn1C(=O)N1CCOCC1` [Example 120, [3-(4-Chlorophenyl)-5-methylsulfanyl-[1,2,4]triazol-1-yl]-morpholin-4-yl-methanone], for which the activity at 10 µM in data set [2] was 40%.
The same measure, in the same setting: the value for `CCCCCCSc1nc(-c2ccc(C)cc2)nn1C(=O)N(C)c1ccccc1` [Example 118, N-Methyl-N-phenyl-5-hexylsulfanyl-3-p-tolyl-[1,2,4]triazole-1-carboxamide] was 24%.
`CN(C(=O)Oc1ccc(Oc2ccc(C(F)(F)F)cn2)cc1)C1CCCCC1` [Example 59, Cyclohexyl-methyl-carbamic acid 4-(5-trifluoromethyl-pyridin-2-yloxy)-phenyl ester]: in data set [3], the activity at 10 µM turned out to be 16%.
As for `CC(C)C(Cl)=NOC(=O)NCc1ccc(F)cc1` [Example 112, N-(4-Fluorobenzylcarbamoyloxy)-isobutyrimidoyl chloride], the “Test 2898.2 HSL2 % Inhibition All” value in data set [1] is on record as 86%.
Take `COc1ccc(OC)c(-c2c(C)c3ccc(OC(=O)N4CCCc5ccccc54)cc3oc2=O)c1` [Example 81, 3,4-Dihydro-2H-quinoline-1-carboxylic acid 3-(2,5-dimethoxy-phenyl)-4-methyl-2-oxo-2H-chromen-7-yl ester]: the activity at 10 µM in data set [3] (setting [4]) was found to be 36%.
As for `O=C(Oc1ccc(Oc2ccc3c(C(F)(F)F)cc(C(F)(F)F)nc3n2)cc1)N1CCOCC1` [Example 90, Morpholine-4-carboxylic acid 4-(5,7-bis-trifluoromethyl-[1,8]naphthypyridin-2-yloxy)-phenyl ester], in data set [3] (setting [4]), the “Test 3190.1 HSL_FL % ACTIVITY All” value is 24%.
For the compound `CN(C(=O)Oc1ccc(OC(C)(C)C)cc1)c1ccccc1` [Example 11, Methyl-phenyl-carbamic acid 4-tert-butoxy-phenyl ester], the activity at 10 µM in data set [3] is 17%.
`O=C(Oc1ccc(Oc2ccc(C(F)(F)F)cn2)cc1)N1CCc2ccccc21` [Example 62, 2,3-Dihydro-indole-1-carboxylic acid 4-(5-trifluoromethyl-pyridin-2-yloxy)-phenyl ester]: in data set [3] (setting [4]), the activity at 10 µM turned out to be 88%.
In the case of `O=C(Nc1cccn1-c1ncc(C(F)(F)F)cc1Cl)Oc1ccc(Cl)cc1` [Example 117, [1-(3-Chloro-5-trifluoromethyl-pyridin-2-yl)-1H-pyrrol-2-yl]-carbamic acid 4-chloro-phenyl ester], in data set [2], the activity at 10 µM stood at 2%.
`Cc1c(-c2ccccc2)c(=O)oc2cc(OC(=O)N(C)c3ccccc3)ccc12` [Example 47, Methyl-phenyl-carbamic acid 4-methyl-2-oxo-3-phenyl-2H-chromen-7-yl ester]: in data set [3], the activity at 10 µM is 42%.
`CN(C(=O)On1ccnn1)c1ccccc1` [Example 144, Methyl-phenyl-carbamic acid [1,2,3]triazol-1-yl ester] showed a melting point of 105 to 106 °C. Also, in data set [3], the activity at 10 µM turned out to be 25%.
Regarding `O=C(Oc1ccc(Oc2c(Cl)cncc2Cl)cc1)N1CCOCC1` [Example 85, Morpholine-4-carboxylic acid 4-(3,5-dichloro-pyridin-4-yloxy)-phenyl ester], the activity at 10 µM in data set [3] (setting [4]) worked out at 88%.
On to `CC(C)(C)Oc1ccc(OC(=O)N2CCOCC2)cc1` [Example 87, Morpholine-4-carboxylic acid 4-tert-butoxy-phenyl ester], for which the melting point fell in the range of 128.8 to 129.5 °C. For the same compound, the activity at 10 µM in data set [3] (setting [4]) stood at 48%.
For `COc1ccc(-c2c(C)c3ccc(OC(=O)N(C)c4ccccc4)cc3oc2=O)cc1` [Example 46, Methyl-phenyl-carbamic acid 3-(4-methoxy-phenyl)-4-methyl-2-oxo-2H-chromen-7-yl ester], the activity at 10 µM in data set [3] is 43%.
Regarding `CCSc1nc(-c2ccc(Cl)cc2)nn1C(=O)N(C)C` [Example 122, N,N-Dimethyl-3-(4-chloro-phenyl)-5-ethylsulfanyl-[1,2,4]triazole-1-carboxamide], the activity at 10 µM in data set [2] came to 14%.
Regarding `CSc1nc(-c2ccc(Cl)cc2)nn1C(=O)N(C)C` [Example 124, N,N-Dimethyl-3-(4-chloro-phenyl)-5-methylsulfanyl-[1,2,4]triazole-1-carboxamide], the “Test 2898.2 HSL2 % Inhibition All” value in data set [1] was 75.1%.
As for `CSc1nc(-c2ccc(-c3ccccc3)cc2)nn1C(=O)N(C)C` [Example 123, N,N-Dimethyl-3-biphenyl-4-yl-5-methylsulfanyl-[1,2,4]triazole-1-carboxamide], the activity at 10 µM in data set [2] turned out to be 22%.
On to `CSc1nc(-c2ccc3ccccc3c2)nn1C(=O)N(C)C` [Example 121, N,N-Dimethyl-5-methylsulfanyl-3-naphthalen-2-yl-[1,2,4]triazole-1-carboxamide], for which the activity at 10 µM in data set [2] came to 24%.
In the case of “N-Methyl-N-phenethyl-5-ethyl-3-(4-chlorophenyl)-[1,2,4]triazole-1-carboxamide [Example 119]”, the “Test 3180.2 HSL % ACTIVITY All” value in data set [2] was 10%.
